Assay results as given in patent US11969428B2, “Methods and pharmaceutical compositions for treating lymphoid malignancy” (priority 2011, dated 2024).

What was measured:
Assay in all cases: Ambit KinomeScan screening
Type in all cases: binding
Details in all cases: CAL-130 10 μM
PAK7 = target: T1, PAK7 (Homo sapiens, UniProt Q9P286)
T1 construct: unspecified tag ('tagged kinases'); purchased Ambit (KinomeScan screening)
In short: (§1)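 CAL-130 was tested at 10 μM for its ability to block tagged kinases from binding an immobilized bait ligand across a 353-kinase panel. Values are expressed as percent of control binding, with lower numbers meaning stronger interaction and values above 35% classed as no hit.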

EPHA2 = target: T2, EPHA2 (Homo sapiens, UniProt P29317)
T2 construct: purchased Ambit (KinomeScan screening service)
In short: as §1

TIE2 = target: T3, TIE2 (Homo sapiens, UniProt Q02763)
T3 construct: unspecified tag (tagged kinase); purchased Ambit (KinomeScan screening)
In short: as §1

MKNK1 = target: T4, MKNK1 (Homo sapiens, UniProt Q9BUB5)
T4 construct: unspecified tag ('tagged kinases'); purchased Ambit (KinomeScan screening)
In short: as §1

TYK2(JH2domain) = target: T5, TYK2(JH2domain) (Homo sapiens, UniProt P29597)
T5 construct: TYK2(JH2domain); tag, kind not specified; purchased Ambit (KinomeScan screening service)
T5 sequence (P29597 589-875 limits assumed): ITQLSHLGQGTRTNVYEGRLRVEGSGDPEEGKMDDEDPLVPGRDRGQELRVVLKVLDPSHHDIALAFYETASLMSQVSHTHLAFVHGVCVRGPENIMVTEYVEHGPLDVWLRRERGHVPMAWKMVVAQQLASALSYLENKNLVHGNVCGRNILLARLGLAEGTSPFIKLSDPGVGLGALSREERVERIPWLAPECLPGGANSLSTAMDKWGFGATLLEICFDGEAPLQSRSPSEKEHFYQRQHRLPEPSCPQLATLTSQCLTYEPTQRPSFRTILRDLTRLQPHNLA
In short: as §1

BRSK1 = target: T6, BRSK1 (Homo sapiens, UniProt Q8TDC3)
T6 construct: unspecified tag ("tagged kinases"); purchased Ambit (KinomeScan screening)
In short: as §1

[1] = target: T7, EGFR(L747-E749DEL, A750P) (Homo sapiens, UniProt P00533, A750P/DEL747-749)
T7 construct: unspecified tag; purchased Ambit (KinomeScan screening service)
In short: as §1

PAK3 = target: T8, PAK3 (Homo sapiens, UniProt O75914)
T8 construct: purchased Ambit (KinomeScan screening service)
In short: as §1

DMPK2 = target: T9, DMPK2 (Homo sapiens, UniProt Q6DT37)
T9 construct: unspecified tag ("tagged kinases"); purchased Ambit (KinomeScan screening service)
T9 sequence (Q6DT37 whole entry): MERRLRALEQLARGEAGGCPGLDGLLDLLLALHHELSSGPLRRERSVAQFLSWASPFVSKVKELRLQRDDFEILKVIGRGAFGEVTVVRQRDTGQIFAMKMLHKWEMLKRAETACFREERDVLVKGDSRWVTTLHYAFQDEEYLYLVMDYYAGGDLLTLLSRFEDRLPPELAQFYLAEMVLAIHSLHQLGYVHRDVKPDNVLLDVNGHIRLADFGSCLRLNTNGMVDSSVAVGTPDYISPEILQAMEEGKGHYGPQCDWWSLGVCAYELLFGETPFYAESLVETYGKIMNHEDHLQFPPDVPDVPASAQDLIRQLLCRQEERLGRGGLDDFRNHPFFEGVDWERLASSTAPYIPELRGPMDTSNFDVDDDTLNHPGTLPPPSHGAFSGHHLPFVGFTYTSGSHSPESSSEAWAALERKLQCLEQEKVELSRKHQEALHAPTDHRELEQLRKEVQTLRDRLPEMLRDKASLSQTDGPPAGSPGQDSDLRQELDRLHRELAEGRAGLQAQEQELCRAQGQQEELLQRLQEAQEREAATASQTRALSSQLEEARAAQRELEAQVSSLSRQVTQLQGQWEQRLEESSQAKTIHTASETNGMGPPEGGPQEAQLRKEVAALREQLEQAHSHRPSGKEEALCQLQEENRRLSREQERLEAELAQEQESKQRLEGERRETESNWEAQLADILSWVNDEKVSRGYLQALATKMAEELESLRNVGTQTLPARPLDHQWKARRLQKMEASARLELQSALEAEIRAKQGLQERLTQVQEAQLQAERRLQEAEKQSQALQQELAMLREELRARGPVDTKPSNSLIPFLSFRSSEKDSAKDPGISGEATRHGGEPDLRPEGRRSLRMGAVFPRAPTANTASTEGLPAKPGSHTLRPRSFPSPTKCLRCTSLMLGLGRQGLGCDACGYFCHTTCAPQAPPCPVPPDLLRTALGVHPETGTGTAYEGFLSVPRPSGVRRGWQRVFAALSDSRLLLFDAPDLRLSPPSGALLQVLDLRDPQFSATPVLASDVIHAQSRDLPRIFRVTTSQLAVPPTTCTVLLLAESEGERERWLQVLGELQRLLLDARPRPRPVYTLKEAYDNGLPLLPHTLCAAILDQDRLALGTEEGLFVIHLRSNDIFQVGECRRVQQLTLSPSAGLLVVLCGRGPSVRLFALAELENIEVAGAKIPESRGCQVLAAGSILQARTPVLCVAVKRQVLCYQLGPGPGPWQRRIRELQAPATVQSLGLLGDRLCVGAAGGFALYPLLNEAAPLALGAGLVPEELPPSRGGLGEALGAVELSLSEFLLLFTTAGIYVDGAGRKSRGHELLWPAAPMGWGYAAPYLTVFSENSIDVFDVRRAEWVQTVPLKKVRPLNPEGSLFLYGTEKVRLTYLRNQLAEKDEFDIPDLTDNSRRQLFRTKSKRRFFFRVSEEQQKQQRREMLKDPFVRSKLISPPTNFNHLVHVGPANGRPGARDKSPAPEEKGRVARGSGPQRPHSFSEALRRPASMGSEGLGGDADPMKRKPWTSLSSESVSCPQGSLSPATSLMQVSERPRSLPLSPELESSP
In short: as §1

SRMS = target: T10, SRMS (Homo sapiens, UniProt Q9H3Y6)
T10 construct: tag, kind not specified; purchased Ambit (KinomeScan screening service)
In short: as §1

PRKD3 = target: T11, PRKD3 (Homo sapiens, UniProt O94806)
T11 construct: tag (kind not specified); purchased Ambit (KinomeScan screening service)
In short: as §1

PAK2 = target: T12, PAK2 (Homo sapiens, UniProt Q13177)
T12 construct: purchased Ambit (KinomeScan screening service)
In short: as §1

MAP3K4 = target: T13, MAP3K4 (Homo sapiens, UniProt Q9Y6R4)
T13 construct: Ambit (KinomeScan screening)
In short: as §1

PRP4 = target: T14, PRP4 (Homo sapiens, UniProt Q13523)
T14 construct: tag (kind not specified); purchased Ambit (KinomeScan screening service)
In short: as §1

MST4 = target: T15, MST4 (Homo sapiens, UniProt Q9P289)
T15 construct: unspecified tag; purchased Ambit (KinomeScan screening panel)
T15 sequence (Q9P289 whole entry): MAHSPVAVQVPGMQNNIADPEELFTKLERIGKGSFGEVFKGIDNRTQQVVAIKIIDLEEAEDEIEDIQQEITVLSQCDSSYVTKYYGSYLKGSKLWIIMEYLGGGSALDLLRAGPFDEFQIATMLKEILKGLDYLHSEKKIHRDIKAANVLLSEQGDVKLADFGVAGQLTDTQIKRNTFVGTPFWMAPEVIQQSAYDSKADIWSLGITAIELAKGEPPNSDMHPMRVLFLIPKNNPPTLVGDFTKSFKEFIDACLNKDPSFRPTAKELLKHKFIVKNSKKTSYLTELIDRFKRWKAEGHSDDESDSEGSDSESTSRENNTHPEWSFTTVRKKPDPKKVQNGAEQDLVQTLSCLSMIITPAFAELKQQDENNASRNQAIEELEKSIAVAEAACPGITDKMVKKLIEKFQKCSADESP
In short: as §1

RIPK2 = target: T16, RIPK2 (Homo sapiens, UniProt O43353)
T16 construct: unspecified tag (tagged kinase); purchased Ambit (KinomeScan screening)
In short: as §1

FLT4 = target: T17, FLT4 (Homo sapiens, UniProt P35916)
T17 construct: unspecified tag ('tagged kinases'); purchased Ambit (KinomeScan screening service)
T17 sequence (P35916 25-1363): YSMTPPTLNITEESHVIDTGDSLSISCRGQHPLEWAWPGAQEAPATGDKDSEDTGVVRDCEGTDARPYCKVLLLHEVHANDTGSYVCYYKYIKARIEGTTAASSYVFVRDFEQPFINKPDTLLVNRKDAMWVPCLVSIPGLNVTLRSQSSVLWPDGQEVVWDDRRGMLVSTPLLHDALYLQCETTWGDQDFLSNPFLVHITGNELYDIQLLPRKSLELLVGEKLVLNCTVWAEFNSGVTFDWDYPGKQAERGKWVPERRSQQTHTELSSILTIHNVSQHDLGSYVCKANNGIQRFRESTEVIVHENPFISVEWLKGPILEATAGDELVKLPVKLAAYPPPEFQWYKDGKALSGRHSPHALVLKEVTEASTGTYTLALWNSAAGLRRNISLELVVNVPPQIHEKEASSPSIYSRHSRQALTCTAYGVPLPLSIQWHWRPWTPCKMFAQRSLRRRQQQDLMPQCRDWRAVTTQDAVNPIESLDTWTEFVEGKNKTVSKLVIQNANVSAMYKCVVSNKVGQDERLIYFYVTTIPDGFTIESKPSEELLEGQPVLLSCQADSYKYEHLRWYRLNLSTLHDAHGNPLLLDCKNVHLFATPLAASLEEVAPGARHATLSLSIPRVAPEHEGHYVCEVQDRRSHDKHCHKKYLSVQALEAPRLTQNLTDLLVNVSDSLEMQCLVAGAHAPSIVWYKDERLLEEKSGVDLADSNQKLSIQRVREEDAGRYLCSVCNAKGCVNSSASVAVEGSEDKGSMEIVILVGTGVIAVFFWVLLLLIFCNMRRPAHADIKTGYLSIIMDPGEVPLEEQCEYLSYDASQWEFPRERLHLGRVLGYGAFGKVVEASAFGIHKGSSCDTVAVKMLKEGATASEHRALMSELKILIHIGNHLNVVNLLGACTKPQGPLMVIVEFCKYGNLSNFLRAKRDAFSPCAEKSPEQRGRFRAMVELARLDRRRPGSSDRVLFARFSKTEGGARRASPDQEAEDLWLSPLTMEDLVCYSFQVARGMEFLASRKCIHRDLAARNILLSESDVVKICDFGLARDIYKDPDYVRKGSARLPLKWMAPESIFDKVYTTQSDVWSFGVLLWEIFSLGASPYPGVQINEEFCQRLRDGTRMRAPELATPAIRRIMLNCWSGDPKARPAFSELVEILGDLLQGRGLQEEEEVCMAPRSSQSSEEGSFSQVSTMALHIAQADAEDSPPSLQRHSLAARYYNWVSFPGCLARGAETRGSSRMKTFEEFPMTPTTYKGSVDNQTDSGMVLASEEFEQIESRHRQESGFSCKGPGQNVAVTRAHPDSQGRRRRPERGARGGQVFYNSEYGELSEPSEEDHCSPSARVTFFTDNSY
In short: as §1

LYN = target: T18, LYN (Homo sapiens, UniProt P07948)
T18 construct: unspecified tag ('tagged kinases'); purchased Ambit (KinomeScan screening service)
In short: as §1

MEK2 = target: T19, MEK2 (Homo sapiens, UniProt P36507)
T19 construct: purchased Ambit (KinomeScan screening)
T19 sequence (P36507 whole entry): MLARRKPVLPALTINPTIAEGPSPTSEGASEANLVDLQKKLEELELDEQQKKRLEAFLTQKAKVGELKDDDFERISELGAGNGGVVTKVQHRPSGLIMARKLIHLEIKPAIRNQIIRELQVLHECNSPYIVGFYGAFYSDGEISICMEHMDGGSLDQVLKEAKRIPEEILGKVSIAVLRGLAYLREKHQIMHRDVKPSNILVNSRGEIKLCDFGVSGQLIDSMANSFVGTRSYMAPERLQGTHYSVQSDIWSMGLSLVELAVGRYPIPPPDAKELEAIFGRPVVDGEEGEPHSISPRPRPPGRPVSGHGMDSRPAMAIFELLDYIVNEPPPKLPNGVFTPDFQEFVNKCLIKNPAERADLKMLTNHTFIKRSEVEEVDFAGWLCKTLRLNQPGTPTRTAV
In short: as §1

BRAF = target: T20, BRAF (Homo sapiens, UniProt P15056)
T20 construct: unspecified tag ("tagged kinases"); purchased Ambit (KinomeScan screening)
In short: as §1

DRAK1 = target: T21, DRAK1 (Homo sapiens, UniProt Q9UEE5)
T21 construct: unspecified tag ("tagged kinases"); purchased Ambit (KinomeScan screening service)
In short: as §1

SBK1 = target: T22, SBK1 (Homo sapiens, UniProt Q52WX2)
T22 construct: tag, kind not specified; purchased Ambit (KinomeScan screening service)
T22 sequence (Q52WX2 whole entry): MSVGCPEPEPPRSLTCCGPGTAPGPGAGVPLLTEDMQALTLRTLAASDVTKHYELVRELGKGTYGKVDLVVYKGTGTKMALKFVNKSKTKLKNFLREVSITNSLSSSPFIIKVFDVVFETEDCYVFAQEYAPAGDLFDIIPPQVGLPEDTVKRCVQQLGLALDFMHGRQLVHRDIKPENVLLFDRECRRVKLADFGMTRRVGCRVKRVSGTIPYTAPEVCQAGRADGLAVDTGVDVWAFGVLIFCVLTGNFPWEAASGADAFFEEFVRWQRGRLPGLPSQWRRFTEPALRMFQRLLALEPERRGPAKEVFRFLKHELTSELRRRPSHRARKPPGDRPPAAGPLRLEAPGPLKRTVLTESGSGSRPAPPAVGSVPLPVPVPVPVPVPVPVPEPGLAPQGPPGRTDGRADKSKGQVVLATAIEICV
In short: as §1

AURKA = target: T23, AURKA (Homo sapiens, UniProt O14965)
T23 construct: purchased Ambit (KinomeScan screening service)
In short: as §1

CDK7 = target: T24, CDK7 (Homo sapiens, UniProt P50613)
T24 construct: purchased Ambit (KinomeScan screening)
In short: as §1

STK16 = target: T25, STK16 (Homo sapiens, UniProt O75716)
T25 construct: purchased Ambit (KinomeScan screening service)
In short: as §1

[2] = target: T26, EGFR(L747-S752DEL, P753S) (Homo sapiens, UniProt P00533, DEL747-752/P753S)
T26 construct: unspecified tag; purchased Ambit (KinomeScan screening service)
In short: as §1

AMPK-α1 = target: T27, AMPK-α1 (Homo sapiens, UniProt Q13131)
T27 construct: purchased Ambit (KinomeScan screening)
In short: as §1

PLK4 = target: T28, PLK4 (Homo sapiens, UniProt O00444)
T28 construct: purchased Ambit (KinomeScan screening service)
In short: as §1

PRKG1 = target: T29, PRKG1 (Homo sapiens, UniProt Q13976)
T29 construct: tag (kind not specified); purchased Ambit (KinomeScan screening service)
In short: as §1

CLK4 = target: T30, CLK4 (Homo sapiens, UniProt Q9HAZ1)
T30 construct: purchased Ambit (KinomeScan screening service)
In short: as §1

ACVR2B = target: T31, ACVR2B (Homo sapiens, UniProt Q13705)
T31 construct: purchased Ambit (KinomeScan screening)
In short: as §1

DRAK2 = target: T32, DRAK2 (Homo sapiens, UniProt O94768)
T32 construct: unspecified tag ("tagged kinases"); purchased Ambit (KinomeScan screening service)
T32 sequence (O94768 whole entry): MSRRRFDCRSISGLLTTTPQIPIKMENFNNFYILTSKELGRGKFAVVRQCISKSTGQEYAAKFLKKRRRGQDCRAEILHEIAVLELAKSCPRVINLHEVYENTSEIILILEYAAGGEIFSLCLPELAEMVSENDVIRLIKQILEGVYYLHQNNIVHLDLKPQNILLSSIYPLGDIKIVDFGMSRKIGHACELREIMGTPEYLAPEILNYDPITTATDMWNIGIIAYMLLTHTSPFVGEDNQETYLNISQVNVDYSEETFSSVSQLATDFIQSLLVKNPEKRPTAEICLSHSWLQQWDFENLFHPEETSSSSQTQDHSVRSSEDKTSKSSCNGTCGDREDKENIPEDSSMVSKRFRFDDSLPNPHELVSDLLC
In short: as §1

TAOK1 = target: T33, TAOK1 (Homo sapiens, UniProt Q7L7X3)
T33 construct: tag (kind not specified); purchased Ambit (KinomeScan screening service)
In short: as §1

YSK4 = target: T34, YSK4 (Homo sapiens, UniProt Q56UN5)
T34 construct: purchased Ambit (KinomeScan screening service)
In short: as §1

CSNK1E = target: T35, CSNK1E (Homo sapiens, UniProt P49674)
T35 construct: purchased Ambit (KinomeScan screening service)
In short: as §1

Measured: Percent of Control Binding

Cc1ccccc1-n1c(C(C)Nc2nc(N)nc3nc[nH]c23)nc2cccc(C)c2c1=O (centres unmarked) [CAL-130]
100%: all assays above
